Test results reported in patent publication US10584124B2, “Crystalline forms” (Array BioPharma Inc., priority 2017, dated 2020).
One block for each molecule: values may come before it.

What was measured:
[1] = Primary salt screen of the compound of Formula II: XRPD post-cycling and post-stability (40° C., 75% RH overnight); assay type: physicochemical; conditions: compound of Formula II + the acid given as label; for XRPD post-cycling: cycled RT/40° C. over 24 hours; for XRPD post-stability: 40° C. and 75% RH overnight
Description: The salt screen was performed as follows. […] In cases where stock solutions could not be attained, the acid was added neat to the solution of the compound of Formula II.
The samples were then temperature cycled between ambient (RT) and 40° C. in 4-hour cycles over 24 hours. Each mixture was filtered and isolated solids were analyzed (wet) by XRPD to determine crystallinity and form. Samples in which solid was not observed were stored uncapped to allow solvent evaporation. The remaining samples were placed in an oven at 40° C. and 75% RH overnight. The samples were then reanalyzed by XRPD to determine any changes in form or crystallinity. The observations and results, including the different diffractogram patterns observed during the screen, are shown in Tables 29-53, below, and FIGS. 24A-24B through 47A-47B.

[2] = Stability screening of freebase and selected salts of Formula I, 40° C. and 75% RH, weekly HPLC over 4 weeks
[3] = Solubility test of the HBr salt of the compound of Formula I; assay type: physicochemical; conditions: for Appearance at 25° C. after 2 h / Solids dissolve at 65° C.?: HBr salt; for Appearance at 25° C. after 2 h: 10-20 mg in 1 mL; for Solids dissolve at 65° C.?: 65° C. for 3 hours

Structure (SMILES): O=S(=O)(O)CCS(=O)(=O)O [1,2-Ethane disulfonic acid]
XRPD post-cycling ([1]; Acetone/water (10%)): No solid
XRPD post-cycling ([1]; Dioxane/water (10%)): No solid
XRPD post-cycling ([1]; EtOH/water (10%)): No solid
XRPD post-cycling ([1]; IPA/water (10%)): No solid
XRPD post-cycling ([1]; MeCN/water (20%)): No solid
XRPD post-cycling ([1]; THF/water (1%)): No solid
XRPD post-stability ([1]; from Acetone/water (10%)): No solid
XRPD post-stability ([1]; from Dioxane/water (10%)): No solid
XRPD post-stability ([1]; from EtOH/water (10%)): No solid
XRPD post-stability ([1]; from IPA/water (10%)): No solid
XRPD post-stability ([1]; from MeCN/water (20%)): No solid
XRPD post-stability ([1]; from THF/water (1%)): No solid

Structure (SMILES): COc1ccc(CN2CCN(c3ccc(-c4cc(-c5cnn(C)c5)cn5ncc(C#N)c45)cn3)CC2)cn1 [Freebase I]
Absolute % change ([2]; 40° C. and 75% RH, T = 0 to 4 weeks): 0.4%
Stability, HPLC analysis, T = 1 week ([2]; stored at 40° C. and 75% RH, 1 week): 97.3%
Stability, HPLC analysis, T = 2 weeks ([2]; stored at 40° C. and 75% RH, 2 weeks): 97.1%
Stability, HPLC analysis, T = 3 weeks ([2]; stored at 40° C. and 75% RH, 3 weeks): 97.1%
Stability, HPLC analysis, T = 4 weeks ([2]; stored at 40° C. and 75% RH, 4 weeks): 96.9%
Stability, HPLC analysis, T = 0 ([2]; stored at 40° C. and 75% RH, T = 0): 97.3%

Structure (SMILES): Br.COc1ccc(CN2CCN(c3ccc(-c4cc(-c5cnn(C)c5)cn5ncc(C#N)c45)cn3)CC2)cn1 [HBr salt]
solubility ([3]; DMSO): 1950 µg/mL
Appearance at 25° C. after 2 h ([3]; solvent 2-methyl THF): Solids
Appearance at 25° C. after 2 h ([3]; solvent ACN): Solids
Appearance at 25° C. after 2 h ([3]; solvent Acetone): Solids
Appearance at 25° C. after 2 h ([3]; solvent DCE): Solids
Appearance at 25° C. after 2 h ([3]; solvent DCM): Solids
Appearance at 25° C. after 2 h ([3]; solvent DMSO): Solids
Appearance at 25° C. after 2 h ([3]; solvent EtOAc): Solids
Appearance at 25° C. after 2 h ([3]; solvent EtOH): Solids
Appearance at 25° C. after 2 h ([3]; solvent IPA): Solids
Appearance at 25° C. after 2 h ([3]; solvent MEK): Solids
Appearance at 25° C. after 2 h ([3]; solvent MTBE): Solids
Appearance at 25° C. after 2 h ([3]; solvent MeOH): Solids
Appearance at 25° C. after 2 h ([3]; solvent THF): Solids
Appearance at 25° C. after 2 h ([3]; solvent iPAc): Solids
Appearance at 25° C. after 2 h ([3]; solvent water): Solids
Solids dissolve at 65° C.? ([3]; solvent 2-methyl THF): No
Solids dissolve at 65° C.? ([3]; solvent ACN): No
Solids dissolve at 65° C.? ([3]; solvent Acetone): No
Solids dissolve at 65° C.? ([3]; solvent DCE): No
Solids dissolve at 65° C.? ([3]; solvent DCM): No
Solids dissolve at 65° C.? ([3]; solvent DMSO): No
Solids dissolve at 65° C.? ([3]; solvent EtOAc): No
Solids dissolve at 65° C.? ([3]; solvent EtOH): No
Solids dissolve at 65° C.? ([3]; solvent IPA): No
Solids dissolve at 65° C.? ([3]; solvent MEK): No
Solids dissolve at 65° C.? ([3]; solvent MTBE): No
Solids dissolve at 65° C.? ([3]; solvent MeOH): No
Solids dissolve at 65° C.? ([3]; solvent THF): No
Solids dissolve at 65° C.? ([3]; solvent iPAc): No
Solids dissolve at 65° C.? ([3]; solvent water): No
Solubility (in words) ([3]; solvent systems examined): low solubility
Solids upon heating to 65° C. ([3]; solvent systems examined, 65° C.): did not dissolve

Structure (SMILES): Cl [Hydrochloric acid]
XRPD post-cycling ([1]; Acetone/water (10%)): Form 2
XRPD post-cycling ([1]; Dioxane/water (10%)): Form 2
XRPD post-cycling ([1]; EtOH/water (10%)): Form 2
XRPD post-cycling ([1]; IPA/water (10%)): Form 2
XRPD post-cycling ([1]; MeCN/water (20%)): Form 2
XRPD post-cycling ([1]; THF/water (1%)): Form 2
XRPD post-stability ([1]; from Acetone/water (10%)): Form 2
XRPD post-stability ([1]; from Dioxane/water (10%)): Form 2
XRPD post-stability ([1]; from EtOH/water (10%)): Form 2
XRPD post-stability ([1]; from IPA/water (10%)): Form 2
XRPD post-stability ([1]; from MeCN/water (20%)): Form 2
XRPD post-stability ([1]; from THF/water (1%)): Form 2

Next, values leading:

XRPD post-cycling ([1]; Dioxane/water (10%)): Form 7
XRPD post-cycling ([1]; EtOH/water (10%)): Form 7
XRPD post-stability ([1]; from Dioxane/water (10%)): Form 7
XRPD post-stability ([1]; from EtOH/water (10%)): Form 7
Structure (SMILES): O=S(=O)(O)CCO [2-Hydroxy ethanesulfonic acid]

XRPD post-cycling ([1]; Dioxane/water (10%)): No solid
XRPD post-cycling ([1]; EtOH/water (10%)): Form 2
XRPD post-cycling ([1]; IPA/water (10%)): Form 2
XRPD post-cycling ([1]; MeCN/water (20%)): No solid
XRPD post-cycling ([1]; THF/water (1%)): No solid
XRPD post-stability ([1]; from Dioxane/water (10%)): No solid
XRPD post-stability ([1]; from EtOH/water (10%)): Form 2
XRPD post-stability ([1]; from IPA/water (10%)): Form 2
XRPD post-stability ([1]; from MeCN/water (20%)): No solid
XRPD post-stability ([1]; from THF/water (1%)): No solid
Structure (SMILES): O=S(=O)(O)c1ccccc1 [Benzene sulfonic acid]

XRPD post-cycling ([1]; Acetone/water (10%)): No solid
XRPD post-cycling ([1]; Dioxane/water (10%)): No solid
XRPD post-cycling ([1]; EtOH/water (10%)): No solid
XRPD post-cycling ([1]; IPA/water (10%)): Amorphous
XRPD post-cycling ([1]; MeCN/water (20%)): No solid
XRPD post-cycling ([1]; THF/water (1%)): No solid
XRPD post-stability ([1]; from Acetone/water (10%)): No solid
XRPD post-stability ([1]; from Dioxane/water (10%)): No solid
XRPD post-stability ([1]; from EtOH/water (10%)): No solid
XRPD post-stability ([1]; from IPA/water (10%)): Amorphous
XRPD post-stability ([1]; from MeCN/water (20%)): No solid
XRPD post-stability ([1]; from THF/water (1%)): No solid
Structure (SMILES): CCS(=O)(=O)O [Ethane sulfonic acid]
